According to ChEMBL document CHEMBL5247616, “Discovery of a NADPH oxidase inhibitor, (E)-3-cyclohexyl-5-(4-((2-hydroxyethyl)(methyl)amino)benzylidene)-1-methyl-2-thioxoimidazolidin-4-oneone, as a novel therapeutic for Parkinson's disease” (Eur J Med Chem, 2022):
Calls of active or inactive are those of the source. The calls are words filed in the database; no cut-off is given here.

Assays:
Mus musculus [1] = assay: Antineuroinflammatory activity against MPTP induced parkinson's disease in C57BL/6 mouse model assessed as […] tyrosine hydroxylase positive dopaminergic neuron in striatum at 10 mg/kg, po administered for 8 days by immunohistochemistry analysis; assay type: functional, organism-based; details: time 8.0 day
[2] = AUClast in rat at 10 mg/kg, po measured after 24 hrs by HPLC-UV method; assay type: ADME, organism-based; set-up: dose 10 mg/kg, time 24 hrs, route po; details: in vivo
[3] = Dose normalized clearance in rat at 20 mg/kg, po measured after 24 hrs by HPLC-UV method; assay type: ADME, organism-based; details: in vivo
BV-2 [4] = assay: Antiinflammatory activity in mouse BV-2 cells assessed as suppression of LPS-stimulated TNFalpha production at 10 uM measured after 24 hrs by qPCR analysis; assay type: functional, cell-based
[5] = Elimination half life in rat at 20 mg/kg, po measured after 24 hrs by HPLC-UV method; assay type: ADME, organism-based; details: in vivo, read-out: beta t1/2 (converted)
[6] = Apparent volume of distribution in rat at 20 mg/kg, po measured after 24 hrs by HPLC-UV method; assay type: ADME, organism-based; details: in vivo
[7] = Toxicity in female ICR mouse assessed as survival rate at 10 mg/kg, iv administered as single dose for 14 days; assay type: organism-based; details: in vivo, time 14 day
[8] = Toxicity in female ICR mouse assessed as survival rate at 300 mg/kg, po administered as single dose for 14 days; assay type: organism-based; details: in vivo, time 14 day
[9] = Toxicity in male ICR mouse assessed as survival rate at 100 mg/kg, iv administered as single dose for 14 days; assay type: organism-based; details: in vivo, time 14 day
[10] = Toxicity in male ICR mouse assessed as survival rate at 30 mg/kg, iv administered as single dose for 14 days; assay type: organism-based; details: in vivo, time 14 day
[11] = Metabolic stability in human liver microsomes assessed as parent compound remaining preincubated for 5 mins followed by NADPH addition and measured after 30 mins by LC-MS/MS analysis; assay type: ADME, Microsome; details: read-out: Stability
[12] = Toxicity in female ICR mouse assessed as survival rate at 1000 mg/kg, po administered as single dose for 14 days; assay type: organism-based; details: in vivo, time 14 day
[13] = Toxicity in male ICR mouse assessed as survival rate at 100 mg/kg, po administered as single dose for 14 days; assay type: organism-based; details: in vivo, time 14 day
[14] = AUClast in rat at 20 mg/kg, po measured after 24 hrs by HPLC-UV method; assay type: ADME, organism-based; set-up: dose 20 mg/kg, time 24 hrs, route po; details: in vivo
[15] = Tmax in rat at 10 mg/kg, po measured after 24 hrs by HPLC-UV method; assay type: ADME, organism-based; details: in vivo
[16] = Elimination half life in rat at 2 mg/kg, iv measured after 24 hrs by HPLC-UV method; assay type: ADME, organism-based; details: in vivo, read-out: beta t1/2 (converted)
[17] = Elimination rate constant in rat at 20 mg/kg, po measured after 24 hrs by HPLC-UV method; assay type: ADME, organism-based; details: in vivo, read-out: Ke (converted)
[18] = Toxicity in male ICR mouse assessed as survival rate at 10 mg/kg, iv administered as single dose for 14 days; assay type: organism-based; details: in vivo, time 14 day
[19] = Dose normalized clearance in rat at 10 mg/kg, po measured after 24 hrs by HPLC-UV method; assay type: ADME, organism-based; details: in vivo, read-out: Dose normalized clearance (converted)
Mus musculus [20] = assay: Antineuroinflammatory activity against MPTP induced parkinson's disease in C57BL/6 mouse model assessed as decrease in IbA1+ microglial cells in substantia nigra at 10 mg/kg, po administered for 8 days by immunohistochemistry analysis; assay type: functional, organism-based; details: time 8.0 day
BV-2 [21] = assay: Inhibition of cell migration in LPS-induced mouse BV-2 cells at 10 uM incubated for 24 hrs by crystal violet staining based transwell assay; assay type: functional
BV-2 [22] = assay: Antiinflammatory activity in mouse BV-2 cells assessed as suppression of LPS-stimulated iNOS production at 10 uM measured after 24 hrs by qPCR analysis; assay type: functional, cell-based
Mus musculus [23] = assay: Antineuroinflammatory activity against MPTP induced parkinson's disease in C57BL/6 mouse model assessed as […] tyrosine hydroxylase positive dopaminergic neuron in substantia nigra at 10 mg/kg, po administered for 8 days by immunohistochemistry analysis; assay type: functional, organism-based; details: time 8.0 day
[24] = AUClast in rat at 2 mg/kg, iv measured after 24 hrs by HPLC-UV method; assay type: ADME, organism-based; set-up: time 24 hrs, dose 2 mg/kg, route iv; details: in vivo
[25] = Toxicity in male ICR mouse assessed as survival rate at 300 mg/kg, po administered as single dose for 14 days; assay type: organism-based; details: in vivo, time 14 day
[26] = C0 in rat plasma at 2 mg/kg, iv measured after 24 hrs by HPLC-UV method; assay type: ADME, organism-based
[27] = Toxicity in female ICR mouse assessed as survival rate at 100 mg/kg, po administered as single dose for 14 days; assay type: organism-based; details: in vivo, time 14 day
[28] = Cmax in rat plasma at 20 mg/kg, po measured after 24 hrs by HPLC-UV method; assay type: ADME, organism-based; set-up: time 24 hrs, dose 20 mg/kg, route po
[29] = Apparent volume of distribution in rat at 10 mg/kg, po measured after 24 hrs by HPLC-UV method; assay type: ADME, organism-based; details: in vivo
[30] = Elimination half life in rat at 10 mg/kg, po measured after 24 hrs by HPLC-UV method; assay type: ADME, organism-based; details: in vivo, read-out: beta t1/2 (converted)
[31] = Toxicity in male ICR mouse assessed as survival rate at 1000 mg/kg, po administered as single dose for 14 days; assay type: organism-based; details: in vivo, time 14 day
[32] = Elimination rate constant in rat at 10 mg/kg, po measured after 24 hrs by HPLC-UV method; assay type: ADME, organism-based; details: in vivo, read-out: Ke (converted)
[33] = Toxicity in female ICR mouse assessed as survival rate at 100 mg/kg, iv administered as single dose for 14 days; assay type: organism-based; details: in vivo, time 14 day
[34] = Toxicity in female ICR mouse assessed as survival rate at 30 mg/kg, iv administered as single dose for 14 days; assay type: organism-based; details: in vivo, time 14 day
[35] = Oral bioavailability in rat at 20 mg/kg measured after 24 hrs by HPLC-UV method; assay type: ADME, organism-based; details: in vivo
[36] = Elimination rate constant in rat at 2 mg/kg, iv measured after 24 hrs by HPLC-UV method; assay type: ADME, organism-based; details: in vivo, read-out: Ke (converted)
[37] = Toxicity in male ICR mouse assessed as survival rate at 300 mg/kg, iv administered as single dose for 14 days; assay type: organism-based; details: in vivo, time 14 day
BV-2 [38] = assay: Inhibition of LPS-induced ROS production in mouse BV-2 cells preincubated for 30 mins followed by LPS addition and measured at 10 sec interval for 15 mins by lucigenin based chemiluminescence assay; assay type: functional, cell-based; details: dose 1-10000 nM, time 45.0 min
[39] = Tmax in rat at 20 mg/kg, po measured after 24 hrs by HPLC-UV method; assay type: ADME, organism-based; details: in vivo
[40] = Cmax in rat plasma at 10 mg/kg, po measured after 24 hrs by HPLC-UV method; assay type: ADME, organism-based; set-up: time 24 hrs, dose 10 mg/kg, route po
[41] = Clearance in rat at 2 mg/kg, iv measured after 24 hrs by HPLC-UV method; assay type: ADME, organism-based; details: in vivo
[42] = Oral bioavailability in rat at 10 mg/kg measured after 24 hrs by HPLC-UV method; assay type: ADME, organism-based; details: in vivo
BV-2 [43] = assay: Antiinflammatory activity in mouse BV-2 cells assessed as suppression of LPS-stimulated IL1beta production at 10 uM measured after 24 hrs by qPCR analysis; assay type: functional, cell-based
Mus musculus [44] = assay: Antineuroinflammatory activity against MPTP induced parkinson's disease in C57BL/6 mouse model assessed as decrease in IbA1+ microglial cells in striatum at 10 mg/kg, po administered for 8 days by immunohistochemistry analysis; assay type: functional, organism-based; details: time 8.0 day
[45] = Toxicity in female ICR mouse assessed as survival rate at 300 mg/kg, iv administered as single dose for 14 days; assay type: organism-based; details: in vivo, time 14 day
[46] = Permeability coefficient of the compound across blood brain barrier at pH 7.4 incubated for 4 hrs by PAMPA assay; assay type: ADME; details: read-out: permeability
[47] = Volume of distribution in rat at 2 mg/kg, iv measured after 24 hrs by HPLC-UV method; assay type: ADME, organism-based; details: in vivo

**Q.** What does the source list for `CN1C(=S)N(C2CCCCC2)C(=O)/C1=C\c1ccc(N(C)CCO)cc1`?
**A.** Activity (Mus musculus [1]): Active; AUC(0-t) at 24 h [2]: 1310 ng·h/mL; Dose normalized clearance [3]: 0.217 L/h; Activity (BV-2 [4]): Active; half-life [5]: 368 min; Vd/F [6]: 1.82 L; survival at 336 h [7]: 100%; survival at 336 h [8]: 100%; survival at 336 h [9]: 100%; survival at 336 h [10]: 100%; remaining at 0.5 h [11]: 76.3%; survival at 336 h [12]: 100%; survival at 336 h [13]: 100%; AUC(0-t) at 24 h [14]: 4160 ng·h/mL; Tmax [15]: 4.98 min; half-life [16]: 47.4 min; k el at 24 h [17]: 4.42e-05 s⁻¹; survival at 336 h [18]: 100%; CL/F [19]: 5.68 mL/min; Activity (Mus musculus [20]): Active; inhibition (BV-2 [21]): Active; Activity (BV-2 [22]): Active; Activity (Mus musculus [23]): Active; AUC(0-t) at 24 h [24]: 468 ng·h/mL; survival at 336 h [25]: 100%; C0 at 24 h [26]: 1700 ng/mL; survival at 336 h [27]: 100%; Cmax [28]: 783 ng/mL; Vd/F [29]: 1.99 L; half-life [30]: 301 min; survival at 336 h [31]: 100%; k el at 24 h [32]: 4.72e-05 s⁻¹; survival at 336 h [33]: 100%; survival at 336 h [34]: 100%; bioavailability [35]: 88.9%; k el at 24 h [36]: 0.000367 s⁻¹; survival at 336 h [37]: 100%; inhibition (BV-2 [38]): Dose-Dependent Effect; Tmax [39]: 40.2 min; Cmax [40]: 609 ng/mL; clearance [41]: 3.62 mL/min; bioavailability [42]: 56%; Activity (BV-2 [43]): Active; Activity (Mus musculus [44]): Active; survival at 336 h [45]: 100%; Papp at 4 h [46]: 13.6 ×10⁻⁶ cm/s; Vd [47]: 0.211 L
